Reference: PubChem BioAssay (NCI)
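Tested at 5 concentrations; 48 h exposure; 96-well plates; endpoints linearly interpolated, else capped at highest concentration. Here, GI50 denotes the concentration required for 50% inhibition of growth. TGI: total growth inhibition.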

Legend:
Test in all cases: NCI-60 cell line screen, 48 h
[1] = test system: HS 578T breast
[2] = test system: K-562 leukemia
[3] = test system: KM12 colon
[4] = test system: MOLT-4 leukemia
[5] = test system: NCI-H460 lung
[6] = test system: OVCAR-3 ovarian
[7] = test system: SK-MEL-5 melanoma
[8] = test system: SNB-75 CNS
[9] = test system: UO-31 renal
[10] = test system: EKVX NSCLC

| SMILES | GI50 [1] | TGI [1] | GI50 [2] | TGI [2] | GI50 [3] | TGI [3] | GI50 [4] | TGI [4] | GI50 [5] | TGI [5] | GI50 [6] | TGI [6] | GI50 [7] | TGI [7] | GI50 [8] | TGI [8] | GI50 [9] | TGI [9] | GI50 [10] | TGI [10] |
| --- | --- | --- | --- | --- | --- | --- | --- | --- | --- | --- | --- | --- | --- | --- | --- | --- | --- | --- | --- | --- |
| COc1cc(SC)ccc1C(=O)N1CCCC(C)C1 (stereo not given) | > 100 µM | > 100 µM | 58.7 µM | > 100 µM | > 100 µM | > 100 µM | 77.7 µM | > 100 µM | > 100 µM | > 100 µM | > 100 µM | > 100 µM | 33.3 µM | > 100 µM | > 100 µM | > 100 µM | > 100 µM | > 100 µM | – | – |
| CN1C=CN(Cc2ccc(-c3ccccn3)nc2)[CH-]1.CN1C=CN(Cc2ccc(-c3ccccn3)nc2)[CH-]1.[Au+3] | > 40.6 µM | > 100 µM | 0.54 µM | > 100 µM | 1.89 µM | > 38.2 µM | 1.1 µM | 12.4 µM | 3.37 µM | > 100 µM | 2.41 µM | 13.8 µM | 1.36 µM | 17.8 µM | 13.9 µM | > 51.8 µM | 22 µM | > 73.6 µM | – | – |
| O=C(N/N=C\c1cc(Cl)ccc1O)N/N=C/c1cc(Cl)ccc1O | 0.643 µM | > 100 µM | 0.572 µM | > 100 µM | 13.1 µM | > 100 µM | 57.5 µM | > 100 µM | 0.518 µM | > 100 µM | 2.12 µM | > 100 µM | 6.41 µM | > 100 µM | 0.969 µM | > 100 µM | 0.489 µM | > 100 µM | 7.83 µM | > 100 µM |
| O=C(/C=C/c1cccs1)Nc1ncc(Cc2ccccc2F)s1 | 0.27 µM | > 100 µM | 0.0749 µM | > 100 µM | 0.205 µM | > 100 µM | 0.378 µM | > 100 µM | 0.335 µM | > 100 µM | 0.216 µM | 0.671 µM | 0.242 µM | > 100 µM | 0.154 µM | 0.651 µM | 0.437 µM | > 100 µM | 0.412 µM | > 100 µM |
| C=C(C)[C@@H]1CC[C@]2(C#N)CC[C@]3(C)[C@H](CC[C@@H]4[C@@]5(C)CCCNC(C)(C)[C@@H]5CC[C@]43C)[C@@H]12 | 2.01 µM | 4.85 µM | 2.09 µM | 10.5 µM | 1.66 µM | 3.23 µM | 2.14 µM | 5.57 µM | 1.88 µM | 3.54 µM | 1.75 µM | 3.38 µM | 1.71 µM | 3.08 µM | – | – | 2.41 µM | 7.92 µM | 1.79 µM | 3.83 µM |
| CCn1c(-c2cc3ccccc3cc2OC(=O)c2ccccc2)n[nH]c1=S | 11.6 µM | 44.8 µM | 22.5 µM | > 50 µM | 42.3 µM | > 50 µM | 28 µM | > 50 µM | – | – | 3.19 µM | > 50 µM | 19.8 µM | > 50 µM | > 50 µM | > 50 µM | 21.1 µM | > 50 µM | 10.7 µM | > 50 µM |
| N#CC(C#N)=C/C=C/c1cccc([N+](=O)[O-])c1 | 0.325 µM | 2.75 µM | 1.59 µM | > 100 µM | 1.28 µM | 3.2 µM | 0.391 µM | 13.6 µM | 1.21 µM | 2.68 µM | 0.533 µM | 4.36 µM | 1.35 µM | 2.66 µM | 1.73 µM | 6.28 µM | – | – | 3.47 µM | 27.8 µM |
